Measured values reported in patent US7816406B2, “Quinolone analogs” (Cylene Pharmaceuticals, Inc., priority 2004, dated 2010).
Read-outs that look alike come from different tables or passages of the source.

Experiments:
c-Myc template DNA = experiment: Quadruplex binding assay (STOP / Taq polymerase arrest, capillary electrophoresis); type: biochemical; settings: concentration at which 50% of the DNA was arrested (arrested:full-length 1:1)
Method: Generally, a 5′-fluorescent-labeled (FAM) primer (P45, 15 nM) was mixed with template DNA (15 nM) in a Tris-HCL buffer (15 mM Tris, pH 7.5) containing 10 mM MgCl2, 0.1 mM EDTA and 0.1 mM mixed deoxynucleotide triphosphates (dNTP's). In one example, the FAM-P45 primer (5′ -6FAM-[…] CAATT-3′) (SEQ ID NO. 17) and the c-Myc template DNA (5′-[…] […] […]-3′) (SEQ ID NO. 18) were synthesized and HPLC purified by Applied Biosystems. The mixture was denatured at 95° C. for 5 minutes and, after cooling down to room temperature, was incubated at 37° C. for 15 minutes.
After cooling down to room temperature, 1 mM KCl2 and the test compound (various concentrations) were added and the mixture incubated for 15 minutes at room temperature. The primer extension was performed by adding 10 mM KCl and Taq DNA Polymerase (2.5 U/reaction, Promega) and incubating at 70° C. for 30 minutes. The reaction was stopped by adding 1 μl of the reaction mixture to 10 μl Hi-Di Formamide mixed and 0.25 μl LIZ120 size standard. Hi-Di Formamide and LIZ120 size standard were purchased from Applied Biosystems. The partially extended quadruplex arrest product was between 61 or 62 bases long and the full-length extended product was 99 bases long. The products were separated and analyzed using capillary electrophoresis. Capillary electrophoresis was performed using an ABI PRISM 3100-Avant Genetic Analyzer. The assay was performed using compounds described above and results are shown in Table 1. μM concentrations reported in Table 1 are concentrations at which 50% of the DNA was arrested in the assay (ie., the ratio of shorter partially extended DNA (arrested DNA) to full-length extended DNA is 1:1).
Stop Assays. Stop assays are high throughput, first-pass screens for detecting drugs that bind to and stabilize the target G-quadruplex. Generally, DNA template oligonucleotide is created, which contains the nucleotide sequence of the “target” quadruplex against which drug screening is desired. A fluorescently labeled primer DNA is then annealed to the 3′ end of the template DNA. A DNA polymerase such as Taq polymerase is then introduced to synthesize a complementary strand of DNA by extending from the fluorescently labeled primer. When the progress of the Taq polymerase is unhindered, it synthesizes a full-length copy of the template. […] If, however, the test drug selectively binds to and stabilizes the quadruplex, the progress of polymerase arrests only at the quadruplex, and a characteristic “Stop Product” is synthesized.
Compounds are initially screened at a single concentration, and “hits” are re-assayed over a range of doses to determine an IC50 value (i.e., the concentration of drug required to produce an arrest product/full-length product ratio of 1:1). These products are visualized by capillary electrophoresis.

HCT-116 = experiment: MTS cell proliferation assay, HCT-116; type: cell-based
Method: (§1) MTS assays. Antiproliferative effects of anticancer drugs are tested by the CellTiter 96 AQueous assay (Promega, WI), which is a colorimetric assay for determining the number of viable cells. (See, e.g., Wang, L., et al., Methods Cell Sci (1996) 18:249-255). Generally, cells (2,000 to 5,000 cells/well) are seeded on 96 well flat bottom plates (Corning, NY) in 100 μl of culture medium without any anticancer drug on day 0, and the culture medium is exchanged for that contained anticancer drugs at various concentrations on day 1. After incubation for 3 days under normal growth conditions (on day 4), the monolayers are washed once in PBS, and the medium is switched to 100 μl of PBS in each of the 96 well plate. After mixing MTS and PMS at the ratio of 20:1, 20 μl of MTS/PMS solution is added to each of the 96 well plate and incubated for 4 hours in a humidified atmosphere of 5% CO2 at 37° C. The absorbance is read at 490 nm using FLUOstar Galaxy 96 well plate reader (BMG Labtechnologies, Germany).

HCT116 cells = experiment: HCT-116 colorectal cancer xenograft model, intravenous dosing; type: in vivo; settings: IV bolus, nu/nu mice
Method: 6 wk old female nu/nu mice were purchased from Taconic Farms, Germantown N.Y. They were injected with 5×10^6 HCT116 cells SQ in right flank. When tumors reached sufficient size for study, they were randomized into groups. • Vehicle: 242.9 mm^3 • Test compound: 251.0 mm^3
Animals dosed by bolus injection—IV through lateral tail vein for five consecutive days. Caliper measurements were taken on Day 1, 4, 6.
6 wk old female nu/nu mice were purchased from Simonsen Labs, Gilroy, Calif. They were injected with 5×10^6 HCT116 cells SQ in right flank. When tumors reached sufficient size for study, they were randomized into groups. • Vehicle: 101.9 mm^3 • Test compound: 152.8 mm^3
Animals dosed by bolus injection—IV through lateral tail vein for fourteen consecutive days. Caliper measurements were taken on Day 1, 3, 5, 7, 10, 12, 14, and 18.
6 wk old female nu/nu mice were purchased from Simonsen Labs, Gilroy, Calif. They were injected with 5×10^6 HCT116 cells SQ in right flank. When tumors reached sufficient size for study, they were randomized into groups. • Vehicle: 114.6 mm^3 • Test compound: 106.1 mm^3 • Test compound: 84.1 mm^3
Animals dosed by bolus injection—IV through lateral tail vein for fourteen consecutive days. Caliper measurements were taken on Day 1, 4, 6, 8, 12, and 15.
6 wk old female nu/nu mice were purchased from Taconic Farms, Germantown N.Y. They were injected with 5×10^6 HCT116 cells SQ in right flank. When tumors reached sufficient size for study, they were randomized into groups. • Vehicle: 242.9 mm^3 • Test compound: 252.1 mm^3
Animals dosed by bolus injection—IV through lateral tail vein for five consecutive days. Caliper measurements were taken on Day 1, 4, and 6.
6 wk old female nu/nu mice were purchased from Taconic Farms, Germantown N.Y. They were injected with 5×10^6 HCT116 cells SQ in right flank. When tumors reached sufficient size for study, they were randomized into groups. • Vehicle: 242.9 mm^3 • Test compound: 236.1 mm^3
6 wk old female nu/nu mice were purchased from Taconic Farms, Germantown N.Y. They were injected with 5×10^6 HCT116 cells SQ in right flank. When tumors reached sufficient size for study, they were randomized into groups. • Vehicle: 242.9 mm^3 • Test compound: 254.7 mm^3
6 wk old female nu/nu mice were purchased from Taconic Farms, Germantown N.Y. They were injected with 5×10^6 HCT116 cells SQ in right flank. When tumors reached sufficient size for study, they were randomized into groups.
Animals dosed by bolus injection—IV through lateral tail vein for nine consecutive days. Caliper measurements were taken on Day 1, 3, 5, 7, and 9.
Animals dosed by bolus injection—IV through lateral tail vein for seven consecutive days. Caliper measurements were taken on Day 1, 3, 5, and 7.

MiaPaca = experiment: MTS cell proliferation assay, MiaPaca; type: cell-based; settings: Table 1C
Method: as §1

[1] = Homo sapiens, HCT-116, HCT-116, Table 1A, read-out: HCT-116 MTs
[2] = 25 mg/kg, five consecutive days
[3] = 12.5 mg/kg, fourteen consecutive days
[4] = different dose levels, fourteen consecutive days
[5] = Homo sapiens, MIA PaCa-2, M CELL MiaPaca
[6] = Homo sapiens, HCT-116, M CELL HCT-116, Table 1C, read-out: M DATA
[7] = 25 and 12.5 mg/kg, seven consecutive days

SMILES | IC50 (c-Myc template DNA) | IC50 (HCT-116; [1]) | also measured
CN1CCCC1CCNC(=O)c1c(=O)c2cc(SCCc3cnccn3)ccc2n2c1sc1ccccc12 (centres unmarked) | 10 µM | 6.1 µM | 
COc1ccc2c(c1)sc1c(C(=O)NCCC3CCCN3C)c(=O)c3cc(F)c(SCCc4cnccn4)cc3n12 (centres unmarked) | 9.3 µM | 5.7 µM | 
CN1CCCC1CCNC(=O)c1c(=O)c2cc(F)c(SCCc3cnccn3)cc2n2c1sc1cc(Cl)ccc12 (centres unmarked) | 1.7 µM | 3.57 µM | 
CC(C)N1CCN(c2cc3c(cc2F)c(=O)c(C(=O)NCCN2CCCC2)c2sc4ccccc4n23)CC1 | 9 µM | 0.3 µM | 
CC(C)N1CCN(c2cc3c(=O)c(C(=O)NCCC4CCCN4C)c4sc5ccccc5n4c3cc2Cl)CC1 (centres unmarked) | > 15 µM |  | 
Nc1ccccc1Sc1c(F)cc2c(=O)c(C(=O)NCCN3CCCC3)c3sc4ccccc4n3c2c1F | 15 µM | 2.4 µM | 
O=C(NCCN1CCCC1)c1c(=O)c2cc(F)c(N3CCC(c4cnccn4)C3)c(F)c2n2c1sc1ccccc12 (centres unmarked) | 11.6 µM | 3.5 µM | 
CN1CCCC1CCNC(=O)c1c(=O)c2cc(F)c(N3CCC(c4cnccn4)C3)cc2n2c1sc1ccccc12 (centres unmarked) | 1.3 µM | 3.4 µM | 
CN1CCCC1CCNC(=O)c1c(=O)c2cc(F)c(N3CCC(c4cnccn4)C3)cc2n2c3ccccc3n(C)c12 (centres unmarked) | 10.5 µM | 0.7 µM | 
Cn1c2ccccc2n2c3cc(N4CCC(c5cnccn5)C4)c(F)cc3c(=O)c(C(=O)NCCN3CCCC3)c12 (centres unmarked) | 8.2 µM | 0.1 µM | 
CN1CCCC1CCNC(=O)c1c(=O)c2cc(F)c(SCCc3cnccn3)cc2n2c3ccccc3n(C)c12 (centres unmarked) | 15 µM | 2.3 µM | 
Cn1c2ccccc2n2c3cc(SCCc4cnccn4)c(F)cc3c(=O)c(C(=O)NCCN3CCCC3)c12 | 15 µM | 0.3 µM | 
Cn1c2ccccc2n2c3cc(F)c(F)cc3c(=O)c(C(=O)NCCN3CCCC3)c12 | 15 µM | 0.3 µM | 
CC(C)N1CCN(c2cc3c(cc2F)c(=O)c(C(=O)NCCC2CCCN2C)c2n(C)c4ccccc4n32)CC1 (centres unmarked) | 15 µM | 0.3 µM | 
CC(C)N1CCN(c2cc3c(cc2F)c(=O)c(C(=O)NCCN2CCCC2)c2n(C)c4ccccc4n32)CC1 | > 15 µM |  | 
CC(C)N1CCN(c2nc3c(cc2F)c(=O)c(C(=O)NCCC2CCCN2C)c2sc4ccc(Cl)cc4n23)CC1 (centres unmarked) |  |  | activity in HCT116 xenograft (HCT116 cells; [2]): activity; adverse effects (HCT116 cells; [2]): no adverse effects observed

SMILES | IC50 (c-Myc template DNA) | IC50 (HCT-116; [1]) | also measured
CC(=O)N1CCN(c2ccc3c(=O)c(C(=O)NCCN4CCCC4)c4n(C)c5ccccc5n4c3n2)CC1 |  |  | activity in HCT116 xenograft (HCT116 cells; [3]): activity; adverse effects (HCT116 cells; [3]): no adverse effects observed; activity in HCT116 xenograft (HCT116 cells; [4]): dose dependent activity; adverse effects (HCT116 cells; [4]): no adverse effects observed
NC1CCN(c2nc3c(cc2F)c(=O)c(C(=O)NCCN2CCCC2)c2sc4ccccc4n23)C1 (centres unmarked) |  |  | activity in HCT116 xenograft (HCT116 cells; [2]): activity; adverse effects (HCT116 cells; [2]): no adverse effects observed
CN1CCCC1CCNC(=O)c1c(=O)c2cc(F)c(SCCc3cnccn3)cc2n2c1sc1ccccc12 (centres unmarked) [drawing 14] | 7.2 µM | 1.1 µM | 
O=C(NCCN1CCCC1)c1c(=O)c2cc(F)c(SCCc3cnccn3)cc2n2c1sc1ccccc12 [drawing 15] | 5.8 µM | 0.57 µM | 
O=C(NCCN1CCCC1)c1c(=O)c2c(N3CCCC3)ccnc2n2c1sc1ccccc12 [drawing 145] |  |  | IC50 (MiaPaca; [5]): 2.3 µM
CC(=O)NC1CCN(c2ccnc3c2c(=O)c(C(=O)NCCN2CCCC2)c2sc4ccccc4n23)C1 (centres unmarked) [drawing 147] |  |  | IC50 (MiaPaca; [5]): 0.7 µM
O=C(NCCN1CCCC1)c1c(=O)c2cnc(N3CCCC3)nc2n2c1sc1ccc(Cl)cc12 [drawing 212] |  |  | IC50 (HCT-116; M CELL HCT-116, Table 1C, read-out: M DATA): 0.21 µM
O=C(NCCN1CCCC1)c1c(=O)c2cnc(N3CCCC3)nc2n2c1sc1ccc(Cl)cc12 [drawing 213] |  |  | IC50 (MiaPaca; M CELL MiaPaca): 0.3 µM
O=C1CN(c2ccnc3c2c(=O)c(C(=O)NCCN2CCOCC2)c2sc4ccccc4n23)CCN1 [drawing 234] |  |  | IC50 (MiaPaca; [5]): 6.6 µM
O=C(NCCN1CCCC1)c1c(=O)c2ccc(NCCN3CCOCC3)nc2n2c1sc1ccccc12 [drawing 307] |  |  | IC50 (HCT-116; [6]): 0.02 µM
CN(C)CCN(C)c1ccc2c(=O)c(C(=O)NCCC3CCCN3C)c3sc4ccccc4n3c2n1 (centres unmarked) [drawing 385] |  |  | IC50 (HCT-116; [6]): 0.02 µM
CC(=O)N1CCN(c2ncc3c(=O)c(C(=O)NCCN4CCCC4)c4sc5ccccc5n4c3n2)CC1 [drawing 653] |  |  | activity in HCT116 xenograft (HCT116 cells; [2]): activity; adverse effects (HCT116 cells; [2]): no adverse effects observed
O=C(NCCN1CCCC1)c1c(=O)c2cnc(N3CCCC3)nc2n2c1sc1ccccc12 [drawing 654] |  |  | activity in HCT116 xenograft (HCT116 cells; [2]): activity; adverse effects (HCT116 cells; [2]): no adverse effects observed
CC(=O)N1CCN(c2nc3c(cc2F)c(=O)c(C(=O)NCCN2CCCC2)c2n(C)c4ccccc4n32)CC1 [drawing 655] |  |  | adverse effects (HCT116 cells; 25 and 12.5 mg/kg, nine consecutive days): no adverse effects observed; activity in HCT116 xenograft (HCT116 cells; high dose (25 mg/kg), nine consecutive days): limited activity; activity in HCT116 xenograft (HCT116 cells; mid dose (12.5 mg/kg), nine consecutive days): no activity
CN1CCCC1CCNC(=O)c1c(=O)c2ccc(N3CCC(c4cnccn4)C3)nc2n2c1sc1ccc(Cl)cc12 (centres unmarked) [drawing 656] |  |  | activity in HCT116 xenograft (HCT116 cells; [7]): excellent activity with minimal dose dependency; adverse effects (HCT116 cells; [7]): No adverse effects were observed
